These results are taken from ChEMBL document CHEMBL1135958, “Hepatobiliary excretion of dipyrrinone sulfonates in Mrp2-deficient (TR(-)) rats” (Bioorg Med Chem Lett, 2002).

The series is described as follows: Pharmacokinetic parameter (Tmax) was estimated. The settings on record: rat, in vivo. The format is ADME, organism-based.

By Tmax is commonly meant the time from dosing to the highest level. Turning to `CCC1=C(C)C(=O)N/C1=C\c1[nH]c(C)c(CCS(=O)(=O)O)c1C`, the time to peak (Tmax) was 6 min.
